Source: patent US7456177B2, “Heteroaryl fused azapolycyclic compounds” (Pfizer Inc., priority 2003, dated 2008)

Row | SMILES | melting point
1 | CN1CC2Cc3cccnc3C(C2)C1.Cl.Cl (centres unmarked) | 260 to 266 °C
2 | Cn1nc2c3c(cccc3c1=O)C1CNCC2C1 (centres unmarked) | 320 to 322 °C
